According to paper PMC10059756, “New Thienobenzo/Naphtho-Triazoles as Butyrylcholinesterase Inhibitors: Design, Synthesis and Computational Study” (International Journal of Molecular Sciences, 2023):

Key:
[1] = target: BChE (EC 3.1.1.8, equine serum) (Equus caballus, UniProt P81908); assay: biochemical; assay type: biochemical; conditions: for IC50: Ellman's method, 5 min pre-incubation at 4 °C, triplicate
TNFα production = conditions: cited from earlier work; for anti-inflammatory activity: previous series
BChE = tested on: BChE; design: method as in PMID 35870364, PMID 35228009; conditions: previous research; cited from earlier work
[2] = target: AChE (EC 3.1.1.7, Electrophorus electricus) (Electrophorus electricus, UniProt O42275); assay: biochemical; assay type: biochemical; conditions: for IC50: Ellman's method, 5 min pre-incubation at 4 °C, triplicate
Sequence of AChE (EC 3.1.1.7, Electrophorus electricus) (O42275 24-633): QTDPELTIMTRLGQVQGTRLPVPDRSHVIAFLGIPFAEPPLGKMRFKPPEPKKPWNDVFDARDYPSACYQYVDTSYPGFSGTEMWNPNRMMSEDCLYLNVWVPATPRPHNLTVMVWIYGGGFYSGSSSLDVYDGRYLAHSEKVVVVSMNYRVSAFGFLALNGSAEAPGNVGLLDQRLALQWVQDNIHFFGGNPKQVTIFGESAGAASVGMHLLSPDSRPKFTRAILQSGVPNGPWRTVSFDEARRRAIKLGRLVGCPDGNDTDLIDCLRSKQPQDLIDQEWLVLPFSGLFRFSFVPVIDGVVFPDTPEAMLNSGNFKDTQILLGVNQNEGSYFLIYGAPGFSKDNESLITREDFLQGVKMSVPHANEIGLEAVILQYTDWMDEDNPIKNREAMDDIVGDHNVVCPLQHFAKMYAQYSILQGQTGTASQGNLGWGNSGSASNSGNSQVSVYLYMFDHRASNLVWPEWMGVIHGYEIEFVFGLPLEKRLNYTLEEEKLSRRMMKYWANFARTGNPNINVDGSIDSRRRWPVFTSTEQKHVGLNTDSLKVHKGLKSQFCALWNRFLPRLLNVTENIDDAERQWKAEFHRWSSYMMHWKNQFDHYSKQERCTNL

Sequence of BChE (EC 3.1.1.8, equine serum) (P81908 whole entry): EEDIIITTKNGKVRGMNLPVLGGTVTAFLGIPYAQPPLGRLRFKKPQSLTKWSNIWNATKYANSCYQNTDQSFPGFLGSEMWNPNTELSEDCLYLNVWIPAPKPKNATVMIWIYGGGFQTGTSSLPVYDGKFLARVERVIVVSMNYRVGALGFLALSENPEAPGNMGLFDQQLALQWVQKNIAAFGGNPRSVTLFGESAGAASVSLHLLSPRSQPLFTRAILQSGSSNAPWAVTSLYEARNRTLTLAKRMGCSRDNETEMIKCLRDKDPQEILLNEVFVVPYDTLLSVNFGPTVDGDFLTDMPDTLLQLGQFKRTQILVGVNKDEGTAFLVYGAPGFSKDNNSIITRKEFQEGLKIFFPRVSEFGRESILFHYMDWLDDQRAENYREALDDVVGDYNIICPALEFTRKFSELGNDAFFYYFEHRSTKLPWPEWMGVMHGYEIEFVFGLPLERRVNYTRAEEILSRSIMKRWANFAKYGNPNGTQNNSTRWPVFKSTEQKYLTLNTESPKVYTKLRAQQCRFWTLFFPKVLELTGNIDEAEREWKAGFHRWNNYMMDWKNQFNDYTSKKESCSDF

Compound	IC50 [1]	IC50 [2]	other results
COc1ccc(CCn2nnc3ccc4sccc4c32)cc1 [Compound 9, 1-(4-methoxyphenethyl)-1H-thieno[3′,2′:3,4]benzo[1,2-d][1,2,3]triazole]	18.6 µM	–	–
C=CCn1nnc2ccc3sccc3c21 [structure C, reference compound]	–	–	TNFα production inhibition (TNFα production; LPS-stimulated human PBMCs): good TNFα production inhibition; IC50 (BChE): 3.8 µM
CCOC(=O)CCn1nnc2ccc3sccc3c21 [Compound 6, Ethyl 3-(1H-thieno[3′,2′:3,4]benzo[1,2-d][1,2,3]triazol-1-yl)propanoate]	39.6 µM	–	–
OCCCCn1nnc2c1-c1ccsc1CC2 [Compound 19, 4-(4,5-dihydro-1H-thieno[3′,2′:3,4]benzo[1,2-d][1,2,3]triazol-1-yl)butan-1-ol]	74.1 µM	–	–
COc1ccc(Cn2nnc3ccc4ccc(OC)cc4c32)cc1 [Compound 2]	–	–	anti-inflammatory activity (TNFα production): best anti-inflammatory activity of all the tested compounds; inhibitory activity toward AChE (in words) ([2]; final concentrations 10–500 μM): no inhibitory activity; inhibitory activity toward BChE (in words) ([1]; final concentrations 10–500 μM): no inhibitory activity
FC(F)(F)Oc1ccc(Cn2nnc3ccc4sccc4c32)cc1 [Compound 8, 1-(4-(trifluoromethoxy)benzyl)-1H-thieno[3′,2′:3,4]benzo[1,2-d][1,2,3]triazole]	214 µM	68 µM	–
Fc1ccc(Cn2nnc3c2-c2ccsc2CC3)cc1 [Compound 13, 1-(4-fluorobenzyl)-4,5-dihydro-1H-thieno[3′,2′:3,4]benzo[1,2-d][1,2,3]triazole]	58 µM	–	–
FC(F)(F)Oc1ccc(Cn2nnc3c2-c2ccsc2CC3)cc1 [Compound 15, 1-(4-(trifluoromethoxy)benzyl)-4,5-dihydro-1H-thieno[3′,2′:3,4]benzo[1,2-d][1,2,3]triazole]	–	88.7 µM	–
COc1ccc(CCn2nnc3c2-c2ccsc2CC3)cc1 [Compound 16]	119 µM	145 µM	–
COc1ccc(Cn2nnc3ccc4sccc4c32)cc1 [Compound 3, 1-(4-methoxybenzyl)-1H-thieno[3′,2′:3,4]benzo[1,2-d][1,2,3]triazole]	25.5 µM	116 µM	–
c1cc2c(s1)CCc1nnn(CCN3CCOCC3)c1-2 [Compound 17, 4-(2-(4,5-dihydro-1H-thieno[3′,2′:3,4]benzo[1,2-d][1,2,3]triazol-1-yl)ethyl)morpholine]	–	45.6 µM	–
c1csc(Cn2nnc3ccc4sccc4c32)c1 [Compound 5, 1-(thiophen-2-ylmethyl)-1H-thieno[3′,2′:3,4]benzo[1,2-d][1,2,3]triazole]	23.4 µM	119 µM	–
Fc1ccc(Cn2nnc3ccc4sccc4c32)cc1 [Compound 4, 1-(4-fluorobenzyl)-1H-thieno[3′,2′:3,4]benzo[1,2-d][1,2,3]triazole]	37.5 µM	97 µM	–
OCCCCn1nnc2ccc3sccc3c21 [Compound 12, 4-(1H-thieno[3′,2′:3,4]benzo[1,2-d][1,2,3]triazol-1-yl)butan-1-ol]	107 µM	–	–
FC(F)(F)c1ccc(Cn2nnc3c2-c2ccsc2CC3)cc1 [Compound 14, 1-(4-(trifluoromethyl)benzyl)-4,5-dihydro-1H-thieno[3′,2′:3,4]benzo[1,2-d][1,2,3]triazole]	> 150 µM	118 µM	–
CC(C)n1nnc2ccc3ccc(Cl)cc3c21 [Compound 1]	39.6 µM	59.9 µM	anti-inflammatory activity (TNFα production): ten times weaker anti-inflammatory activity than 2
FC(F)(F)c1ccc(Cn2nnc3ccc4sccc4c32)cc1 [Compound 7, 1-(4-(trifluoromethyl)benzyl)-1H-thieno[3′,2′:3,4]benzo[1,2-d][1,2,3]triazole]	> 150 µM	140 µM	–
COc1ccc2c3c1O[C@H]1C[C@@H](O)C=C[C@@]31CCN(C)C2 [Galantamine, galantamine]	–	–	IC50 (BChE): 7.9 µM
